Data from publication PMC4378371, “Subunit disassembly and inhibition of TNFα by a semi-synthetic bicyclic peptide” (Protein Engineering, Design and Selection, 2015).
Bridge positions count the residues as written; N and C are the ends. Peptide text beside a SMILES is read from it.

Columns and labels:
TNFα trimer = details: TNFα 10 µM with excess peptide 100 µM, longer pre-incubation
TNFα = TNFα (Homo sapiens, UniProt P01375); details: L929 assay; unable to fully rescue because of toxicity at higher concentrations
L929 cells = details: at >100 µM compound

Chain of TNFα (P01375 77-233 limits assumed): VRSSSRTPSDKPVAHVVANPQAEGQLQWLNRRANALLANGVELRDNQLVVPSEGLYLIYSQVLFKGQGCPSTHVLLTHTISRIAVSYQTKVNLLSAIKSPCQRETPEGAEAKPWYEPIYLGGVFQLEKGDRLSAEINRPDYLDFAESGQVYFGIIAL

Row | Structure (SMILES) | effect on TNFα trimers (MS) (TNFα trimer) | maximal rescue of cell viability (TNFα) [%] | cell death (L929 cells) [%]
1 | Cc1c2c(C)c3c(C)c1CSC[C@H](NC(=O)[C@@H]1CCCN1C(=O)[C@@H]1CCCN1C(=O)[C@@H](NC(=O)[C@H](C)N)CSC3)C(=O)N[C@@H](CC(C)C)C(=O)N[C@@H](Cc1c[nH]c3ccccc13)C(=O)N[C@@H](CCC(N)=O)C(=O)N[C@@H](C(C)C)C(=O)N[C@@H](CC(C)C)C(=O)N[C@H](C(=O)NCC(=O)NCC(=O)N[C@@H](CO)C(=O)NCC(=O)N[C@@H](CO)C(=O)NCC(=O)N[C@@H](CO)C(=O)NCC(N)=O)CSC2 [M21h] | converted quantitatively into dimers and monomers |  | 
2 | CC(C)C[C@H](NC(=O)[C@@H]1CSSC[C@@H]2NC(=O)[C@H](CC(C)C)NC(=O)[C@H](CCC(=O)O)NC(=O)[C@@H](NC(=O)[C@H](CCC(=O)O)NC(=O)[C@H](CC(=O)O)NC(=O)[C@@H](N)CC(N)=O)CSSC[C@H](NC(=O)[C@H](C)NC(=O)[C@H](C(C)C)NC(=O)[C@H](CC(N)=O)NC(=O)[C@H](C(C)C)NC2=O)C(=O)N[C@@H]([C@@H](C)O)C(=O)NCC(=O)N1)C(=O)O [SPD304] (H-NDECELCVNVACTGCL-OH; disulfide 4-12, 7-15) |  | ≤ 73 | 100
